Ki and LD50 data for 3 compounds are collected here from patent publication US20120053318A1, “METHOD OF RADIOLABELING” (CENTRE FOR PROBE DEVELOPMENT AND COMMERCIALIZATION, priority 2010, published 2012).

Series [1] concerns the target urokinase plasminogen activator receptor (uPAR) (Homo sapiens, UniProt Q03405). In words: binding affinity of Re complexes of the peptides for uPAR. The conditions noted are these: isostructural to the Tc analogues.
The conditions of series [2]: oils selected based on biocompatibility; cited from earlier work.

urokinase plasminogen activator receptor (uPAR), sequence (Q03405 23-305): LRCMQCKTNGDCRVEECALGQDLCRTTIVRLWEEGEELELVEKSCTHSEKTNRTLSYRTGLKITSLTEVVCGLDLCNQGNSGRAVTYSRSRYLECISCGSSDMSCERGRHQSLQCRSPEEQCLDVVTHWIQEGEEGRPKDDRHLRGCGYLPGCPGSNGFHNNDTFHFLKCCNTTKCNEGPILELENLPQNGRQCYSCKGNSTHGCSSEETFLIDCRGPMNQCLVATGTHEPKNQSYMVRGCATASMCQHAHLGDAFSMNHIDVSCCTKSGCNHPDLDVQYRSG

D-Cha-F-s-r-Y-L-W-S-SAACII [L2] returned a Ki in series [1] of 390 ± 100 pM. SAACII-S-G-S-G-D-Cha-F-s-r-Y-L-W-S [L1]: in series [1], the inhibition constant (Ki) amounted to 1370 ± 830 pM. Regarding `CC(C)CC(C)(C)C` [isooctane], the LD50 result in series [2] is reported as “greater than 2000 mg/kg”.
